Source: ChEMBL document CHEMBL5625174, “Are inhibitors of histone deacetylase 8 (HDAC8) effective in hematological cancers especially acute myeloid leukemia (AML) and acute lymphoblastic leukemia (ALL)?” (Eur J Med Chem, 2023)
pIC50: −log10 of the molar value. Values belong to the compound of their own block, whether it stands above or below them.

Columns and labels:
[1] = system: Jurkat E6.1; assay: Cytotoxicity against human Jurkat E6.1 cells assessed as reduction in cell viability incubated for 72 hrs by MTT assay; type: functional, cell-based; details: Jurkat E6.1, 72 h
[2] = system: Jurkat; assay: Cytotoxicity against human Jurkat cells assessed as reduction in cell viability incubated for 24 hrs by CellTiter-Glo luminescent cell viability assay; type: functional
[3] = system: Jurkat; assay: Cytotoxicity against human Jurkat cells assessed as reduction in cell viability measured after 24 hrs by Celltiter-Glo assay; type: functional, cell-based
[4] = biological target: T1, Histone deacetylase 8 (Homo sapiens, UniProt Q9BY41); assay: Inhibition of human recombinant HDAC8 using fluorogenic HDAC substrate class 2A preincubated for 30 mins followed by substrate addition and measured after 15 mins by fluorogenic assay
T1 sequence (Q9BY41 whole entry): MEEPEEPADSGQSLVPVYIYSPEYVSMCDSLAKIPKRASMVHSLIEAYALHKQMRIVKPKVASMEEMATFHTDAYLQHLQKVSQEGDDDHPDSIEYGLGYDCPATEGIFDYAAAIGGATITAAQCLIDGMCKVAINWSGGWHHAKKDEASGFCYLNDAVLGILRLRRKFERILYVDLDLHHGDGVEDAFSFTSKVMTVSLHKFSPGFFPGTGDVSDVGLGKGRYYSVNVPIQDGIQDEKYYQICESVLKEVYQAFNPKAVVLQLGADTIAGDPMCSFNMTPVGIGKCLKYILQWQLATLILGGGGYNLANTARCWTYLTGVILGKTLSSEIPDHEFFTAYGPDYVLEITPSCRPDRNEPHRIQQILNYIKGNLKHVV

[5] = biological target: Histone deacetylase 1 (Homo sapiens, UniProt Q13547); assay: Inhibition of HDAC1 (unknown origin) using Ac-Leu-Gly-Lys(Ac)-AMC as substrate pre-incubated for 30 mins followed by substrate addition and measured after 30 mins by fluorescence based analysis
Chain of Histone deacetylase 1 (Q13547 whole entry): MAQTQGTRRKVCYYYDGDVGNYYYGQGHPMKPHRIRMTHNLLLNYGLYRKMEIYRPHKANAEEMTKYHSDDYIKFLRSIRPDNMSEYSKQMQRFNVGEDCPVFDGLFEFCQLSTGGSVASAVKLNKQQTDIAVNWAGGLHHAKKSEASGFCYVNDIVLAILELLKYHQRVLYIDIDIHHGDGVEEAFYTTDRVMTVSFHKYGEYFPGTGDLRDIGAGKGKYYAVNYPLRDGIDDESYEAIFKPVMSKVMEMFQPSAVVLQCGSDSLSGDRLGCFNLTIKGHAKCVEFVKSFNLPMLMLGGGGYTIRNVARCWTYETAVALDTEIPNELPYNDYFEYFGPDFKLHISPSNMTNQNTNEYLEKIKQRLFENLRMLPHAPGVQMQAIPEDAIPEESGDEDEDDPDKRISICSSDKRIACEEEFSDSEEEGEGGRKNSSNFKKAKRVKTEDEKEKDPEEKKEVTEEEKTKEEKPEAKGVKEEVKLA

[6] = Inhibition of HDAC6 (unknown origin) assessed as release of fluorogenic AMC pre-incubated for 15 mins followed by addition of trypsin and substrate measured after 60 mins microplate reader analysis; design: species or system Homo sapiens
[7] = biological target: Histone deacetylase 2 (Homo sapiens, UniProt Q92769); assay: Inhibition of HDAC2 (unknown origin) assessed as release of fluorogenic AMC pre-incubated for 15 mins followed by addition of trypsin and substrate measured after 60 mins microplate reader analysis
Chain of Histone deacetylase 2 (Q92769 whole entry): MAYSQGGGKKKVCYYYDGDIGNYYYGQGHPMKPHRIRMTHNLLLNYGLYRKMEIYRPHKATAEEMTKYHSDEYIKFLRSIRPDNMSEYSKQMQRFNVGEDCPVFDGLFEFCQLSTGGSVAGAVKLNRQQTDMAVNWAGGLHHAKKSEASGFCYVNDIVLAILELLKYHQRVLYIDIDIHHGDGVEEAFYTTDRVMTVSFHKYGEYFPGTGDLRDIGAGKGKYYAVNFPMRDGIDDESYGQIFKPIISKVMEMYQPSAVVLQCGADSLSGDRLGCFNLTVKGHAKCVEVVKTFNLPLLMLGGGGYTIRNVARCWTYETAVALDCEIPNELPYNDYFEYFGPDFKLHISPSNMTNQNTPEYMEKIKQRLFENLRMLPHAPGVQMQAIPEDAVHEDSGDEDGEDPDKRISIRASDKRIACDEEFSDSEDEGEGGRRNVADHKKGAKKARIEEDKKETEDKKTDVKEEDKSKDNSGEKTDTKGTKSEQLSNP

[8] = biological target: T2, Histone deacetylase 4 (Homo sapiens, UniProt P56524); assay: Inhibition of HDAC4 (unknown origin) assessed as release of fluorogenic AMC pre-incubated for 15 mins followed by addition of trypsin and substrate measured after 60 mins microplate reader analysis
T2 sequence (P56524 whole entry): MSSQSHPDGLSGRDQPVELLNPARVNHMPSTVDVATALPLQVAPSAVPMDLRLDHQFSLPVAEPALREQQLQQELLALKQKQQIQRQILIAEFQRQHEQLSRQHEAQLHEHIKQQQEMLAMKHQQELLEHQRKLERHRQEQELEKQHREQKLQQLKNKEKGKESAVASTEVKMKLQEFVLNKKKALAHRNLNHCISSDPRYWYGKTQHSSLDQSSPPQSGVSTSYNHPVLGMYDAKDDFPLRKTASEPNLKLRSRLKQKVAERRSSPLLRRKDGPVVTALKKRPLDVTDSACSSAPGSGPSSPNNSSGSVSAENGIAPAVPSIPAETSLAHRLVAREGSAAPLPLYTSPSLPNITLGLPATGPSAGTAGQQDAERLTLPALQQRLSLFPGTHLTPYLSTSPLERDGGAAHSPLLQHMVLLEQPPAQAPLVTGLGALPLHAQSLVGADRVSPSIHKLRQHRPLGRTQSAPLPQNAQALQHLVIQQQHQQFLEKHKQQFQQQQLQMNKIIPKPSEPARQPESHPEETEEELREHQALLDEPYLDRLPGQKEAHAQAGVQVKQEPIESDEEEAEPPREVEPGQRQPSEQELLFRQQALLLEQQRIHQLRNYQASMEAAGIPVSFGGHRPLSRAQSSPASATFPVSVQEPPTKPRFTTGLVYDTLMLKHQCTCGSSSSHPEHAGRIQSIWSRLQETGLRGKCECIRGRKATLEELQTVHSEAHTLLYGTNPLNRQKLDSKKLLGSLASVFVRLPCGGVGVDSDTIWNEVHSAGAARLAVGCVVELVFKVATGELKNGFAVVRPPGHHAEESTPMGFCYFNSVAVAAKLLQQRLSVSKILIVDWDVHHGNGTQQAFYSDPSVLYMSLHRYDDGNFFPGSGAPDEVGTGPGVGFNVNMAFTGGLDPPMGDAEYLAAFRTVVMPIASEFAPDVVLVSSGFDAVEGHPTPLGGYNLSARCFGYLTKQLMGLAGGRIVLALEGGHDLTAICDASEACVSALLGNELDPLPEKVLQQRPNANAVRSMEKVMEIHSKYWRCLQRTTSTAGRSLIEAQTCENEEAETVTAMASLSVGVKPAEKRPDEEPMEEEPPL

[9] = system: Jurkat; assay: cells; type: functional; details: Homo sapiens
Description: Growth inhibition of human Jurkat cells

[10] = biological target: Histone deacetylase; assay: Inhibition of HDAC (unknown origin) using Fluoro-Substrate Peptide as substrate by fluorescence assay; type: protein assay, Homo sapiens
[11] = biological target: T1, Histone deacetylase 8; assay: Inhibition of HDAC8 (unknown origin) by fluorescence based assay
[12] = system: Jurkat E6.1; assay: Cytotoxicity against human Jurkat E6.1 cells assessed as reduction in cell growth measured after 48 hrs by MTT assay; type: functional, cell-based; details: Jurkat E6.1, 48 h
[13] = system: U-937; assay: Cytotoxicity against human U-937 cells assessed as reduction in cell viability; type: functional, cell-based
[14] = system: Jurkat E6.1; assay: Cytotoxicity against human Jurkat E6.1 cells assessed as reduction in cell viability; type: functional, cell-based
[15] = system: MOLT-4; assay: Cytotoxicity against human MOLT-4 cells assessed as reduction in cell viability; type: functional, cell-based
[16] = system: MCF7; assay: Antiproliferative activity against human MCF7 cells assessed as reduction in cell viability incubated for 24 hrs by MTT assay; type: functional, cell-based; details: MCF7, 24 h
[17] = system: MDA-MB-231; assay: Antiproliferative activity against human MDA-MB-231 cells assessed as reduction in cell viability incubated for 24 hrs by MTT assay; type: functional, cell-based; details: MDA-MB-231, 24 h
[18] = system: HeLa; assay: Growth inhibition of human HeLa cells incubated for 72 hrs by trypan blue assay; type: functional
[19] = biological target: Histone deacetylase 3 (Homo sapiens, UniProt O15379); assay: Inhibition of HDAC3 (unknown origin) assessed as release of fluorogenic AMC pre-incubated for 15 mins followed by addition of trypsin and substrate measured after 60 mins microplate reader analysis
Chain of Histone deacetylase 3 (O15379 whole entry): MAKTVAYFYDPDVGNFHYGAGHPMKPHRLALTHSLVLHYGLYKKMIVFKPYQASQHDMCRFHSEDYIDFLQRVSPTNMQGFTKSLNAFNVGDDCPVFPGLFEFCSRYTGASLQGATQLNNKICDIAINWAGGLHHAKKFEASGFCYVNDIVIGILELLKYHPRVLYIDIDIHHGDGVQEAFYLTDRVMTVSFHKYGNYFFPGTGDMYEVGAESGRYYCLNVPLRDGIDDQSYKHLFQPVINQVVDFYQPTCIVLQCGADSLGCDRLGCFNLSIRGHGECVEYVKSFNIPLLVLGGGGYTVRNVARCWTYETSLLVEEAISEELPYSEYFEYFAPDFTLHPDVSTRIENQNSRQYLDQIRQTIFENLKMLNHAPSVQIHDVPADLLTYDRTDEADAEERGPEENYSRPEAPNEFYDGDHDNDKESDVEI

[20] = biological target: T3, Polyamine deacetylase HDAC10 (Homo sapiens, UniProt Q969S8); assay: Inhibition of HDAC10 (unknown origin) assessed as release of fluorogenic AMC pre-incubated for 15 mins followed by addition of trypsin and substrate measured after 60 mins microplate reader analysis
T3 sequence (Q969S8 whole entry): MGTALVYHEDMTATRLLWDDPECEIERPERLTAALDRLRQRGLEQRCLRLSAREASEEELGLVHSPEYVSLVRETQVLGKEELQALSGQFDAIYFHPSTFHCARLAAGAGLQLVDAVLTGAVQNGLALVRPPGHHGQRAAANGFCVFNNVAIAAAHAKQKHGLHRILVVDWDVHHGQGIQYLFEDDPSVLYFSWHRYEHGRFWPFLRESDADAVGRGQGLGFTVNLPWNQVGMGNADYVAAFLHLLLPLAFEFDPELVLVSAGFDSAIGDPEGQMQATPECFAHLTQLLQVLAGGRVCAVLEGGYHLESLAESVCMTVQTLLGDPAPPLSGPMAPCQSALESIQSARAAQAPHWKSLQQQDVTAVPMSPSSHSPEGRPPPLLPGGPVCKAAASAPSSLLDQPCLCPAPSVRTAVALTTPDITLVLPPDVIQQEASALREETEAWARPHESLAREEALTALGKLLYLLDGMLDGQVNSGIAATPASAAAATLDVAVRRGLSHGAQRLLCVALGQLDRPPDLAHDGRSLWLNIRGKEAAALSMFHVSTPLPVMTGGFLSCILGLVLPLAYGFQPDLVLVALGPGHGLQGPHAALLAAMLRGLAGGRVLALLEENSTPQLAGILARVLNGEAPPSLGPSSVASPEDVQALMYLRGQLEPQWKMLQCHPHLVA

[21] = biological target: T1, Histone deacetylase 8; assay: Inhibition of HDAC8 (unknown origin) assessed as release of fluorogenic AMC pre-incubated for 15 mins followed by addition of trypsin and substrate measured after 60 mins microplate reader analysis
[22] = biological target: T2, Histone deacetylase 4; assay: Inhibition of HDAC4 (unknown origin)
[23] = biological target: T3, Polyamine deacetylase HDAC10; assay: Inhibition of HDAC10 (unknown origin)
[24] = system: MOLT-4; assay: cells; type: functional; details: Homo sapiens, time 24 hrs
Description: Growth inhibition of human MOLT-4 cells measured after 24 hrs by MTT assay

[25] = system: THP-1; assay: cells; type: functional; details: Homo sapiens
Description: Growth inhibition of human THP-1 cells

SMILES: CCCCNC(=O)[C@H](CCC(=O)NO)NC(=O)Cc1ccc([N+](=O)[O-])cc1
- pIC50 [1]: > 4.30

SMILES: CCC(=O)CCCCC[C@@H]1NC(=O)[C@H]2CCCCN2C(=O)[C@H]([C@@H](C)CC)NC(=O)[C@H](Cc2cn(OC)c3ccccc23)NC1=O [APICIDIN]
- CC50 [2]: 10 µM

SMILES: O=C(CCCCCN1C(=O)c2cccc3cccc(c23)C1=O)NO
- pIC50 [3]: 5.21

SMILES: CCCCCNC(=O)[C@H](CCC(=O)NO)NC(=O)Cc1ccc(Cl)cc1
- pIC50 [1]: > 4.30

SMILES: CSCC[C@@H]1NCC(=O)NC1=O
- pIC50 [4]: 7.05

SMILES: O=C1CN[C@H](Cc2ccccc2)C(=O)N1
- pIC50 [4]: 7.67

SMILES: CC(C)CNC(=O)[C@H](CCC(=O)NO)NC(=O)Cc1ccccc1F
- pIC50 [1]: < 4.30

SMILES: CCCCCCNC(=O)[C@H](CCC(=O)NO)NC(=O)Cc1ccc(Br)cc1
- pIC50 [1]: > 4.30

SMILES: O=C(CC[C@H](NC(=O)Cc1ccc(Cl)cc1Cl)C(=O)Nc1ccccc1)NO
- pIC50 [1]: > 4.30

SMILES: CCCCNC(=O)[C@H](CCC(=O)NO)NC(=O)Cc1ccc(Cl)cc1Cl
- pIC50 [1]: > 4.30

SMILES: O=C1CN[C@@H](Cc2cc3ccccc3[nH]2)C(=O)N1
- pIC50 [4]: 7.97

SMILES: CCCCCNC(=O)[C@H](CCC(=O)NO)NC(=O)Cc1ccc(Br)cc1
- pIC50 [1]: < 4.30

SMILES: O=C(/C=C/C#Cc1cccc(NS(=O)(=O)c2ccccc2)c1)NO
- CC50 [2]: 5.9 µM

Now from value to compound, other results behind:

- pIC50 [5]: < 4.00
- pIC50 [6]: 4.26
SMILES: O=C(NO)c1ccc(-c2cccc3ccccc23)cc1

- pIC50 [5]: < 4.00
- pIC50 [7]: < 4.00
- pIC50 [8]: < 4.00
- pIC50 [6]: 5.66
- GI50 [9]: 24 µM
SMILES: O=C(NO)c1cccc(-n2cc(CSc3ccccc3)nn2)c1

- IC50 [10]: > 10 µM
- pIC50 [11]: ≥ 5.00
SMILES: O=C(O)CC[C@H](NC(=O)Cc1ccc(Br)cc1)C(=O)NCc1ccc(F)cc1
- pIC50 [12]: 5.79
- pIC50 [13]: < 4.46
- pIC50 [14]: > 4.46
- pIC50 [15]: < 4.46

- pIC50 [16]: 5.11
- pIC50 [17]: 5.02
- GI50 [18]: 2 µM
SMILES: COc1ccc(/C=C/C(=O)NO)c(-c2ccc3c(c2)OCO3)c1

- pIC50 [5]: 5.35
- pIC50 [7]: < 4.70
- pIC50 [19]: 5.32
- pIC50 [6]: < 4.70
- pIC50 [20]: < 4.70
SMILES: COc1ccc(/C=C/C(=O)NO)c(-c2ccc(Br)cc2)c1

- IC50 [10]: > 10 µM
- pIC50 [11]: ≥ 5.00
SMILES: O=C(O)CC[C@H](NC(=O)Cc1ccc(Br)cc1)C(=O)NCc1ccc(Cl)c(Cl)c1
- pIC50 [13]: < 4.46
- pIC50 [14]: > 4.46
- pIC50 [15]: > 4.46

- pIC50 [5]: 5.37
- pIC50 [7]: < 4.70
- pIC50 [19]: < 4.70
- pIC50 [8]: < 4.70
- pIC50 [6]: 5.92
- pIC50 [21]: 9.10
- pIC50 [20]: < 4.70
SMILES: O=C(NO)[C@@H](Cc1ccccc1)n1nnc(-c2ccccc2)c1C#CC1CC1

- pIC50 [22]: 7.82
- pIC50 [23]: 7.23
- GI50 [9]: 0.11 µM
- GI50 [24]: 0.12 µM
- GI50 [25]: 0.075 µM
SMILES: O=C(/C=C/c1cccc(S(=O)(=O)Nc2ccccc2)c1)NO [BELINOSTAT]
